*1 amine or outer side, *2 acyl side, *3 side chain or, on linkers, in order; H or OH if unused. Where a SMILES comes first, the peptide text is derived from it. Bridges are numbered along the chain shown (N, C = ends). [ ]: non-standard residue; d: D form. Adda = CO[C@@H](Cc1ccccc1)[C@@H](C)/C=C(C)/C=C/[C@H](N[*:1])[C@H](C)C(=O)[*:2]; dAsp(3S-Me) = C[C@H](C(=O)[*:3])[C@@H](N[*:1])C(=O)[*:2]; d(γGlu) = O=C(O)[C@@H](CCC(=O)[*:2])N[*:1]; hTyr = N[C@@H](CCc1ccc(O)cc1)C(=O)O; NMeA = CN[C@@H](C)C(=O)O; NMeDha = C=C(NC)C(=O)O; CO = O=C([*:1])[*:2]

Consider three molecules from publication PMC11436104 (Toxins, 2024).

A short description of series [1]: Interaction with the air–water interface (Langmuir trough, no lipids). Type of series: physicochemical. To be noted: absence of lipids, 0–30 µM injected, 25 °C, pH 7.5. As for the experimental part: (§1) Lateral pressure measurements were carried out in a Langmuir trough (MicroTrough-S system; Kibron, Helsinki, Finland) at room temperature (25 °C) under constant stirring. The aqueous sub-phase was 500 µL 10 mM Hepes, 200 mM NaCl, and pH 7.5.

Series [2] has as its system NHAs. The series is described as follows: Cytoskeleton immunostaining (microfilaments, microtubules), confocal microscopy. To be noted: 10 µM, 24 h. Type of series: cell-based, human. How it is done: To determine the influence of the CCPs on actin microfilament and microtubule organization, the cells were labeled with rhodamine-conjugated phalloidin (Molecular Probes, Cat. # R415), and mouse monoclonal anti-bovine α-tubulin antibodies (Molecular Probes Cat. # A11126) and secondary Alexa-488 goat anti-mouse IgG (Molecular Probes Cat. # A-11017), respectively. The cells (3000/well) were plated into 16-well plates (Culture Well Chambered Coverglass for Cell Culture; […].
The cells in all the experiments were exposed to the CCPs for an additional 24 h in the CO2 incubator at 37 °C in a 5% CO2 atmosphere before they were fixed.
Fixing and staining. The cells were washed in phosphate-buffered saline (PBS) and fixed in 3.7% paraformaldehyde in either PBS (37 °C, 30 min; for microfilaments, microtubules, nestin) or in ice-cold methanol (4 °C, 10 min; for GFAP, desmoplakin I+II). Then the cells were permeabilized in PBS containing 0.1% Triton X-100 (v/v; Merck, Germany) for 20 min and blocked in 4% bovine serum albumin (Sigma) at room temperature for 10 min. For desmoplakin I+II visualization, the cells were blocked in 10% fetal bovine serum (Sigma) for 60 min without cell permeabilization. Microfilaments were stained with rhodamine-conjugated phalloidin (1:40) for 30 min at room temperature. Microtubules were visualized by immunostaining using an anti-α-tubulin antibody overnight at 4 °C (1:200 in PBS containing Ca^2+, 0.1% [v/v] Tween-20) and the secondary antibodies labeled with Alexa-488 goat anti-mouse IgG (1:1000; 30 min at room temperature). Intermediate filaments were stained using anti-nestin (1:500; overnight at 4 °C) and anti-GFAP (1:500, overnight at 4 °C) antibodies. The anti-nestin-labeled cells were visualized using secondary antibodies labeled with Alexa-488 goat anti-mouse IgG and the anti-GFAP-labeled cells with Alexa-488 anti-rabbit IgG (1:1000 dilution, room temperature, 30 min). Desmoplakin I+II were stained with a mouse anti-desmoplakin I+II antibody (1:500 dilution; room temperature, 60 min) and visualized with Alexa-488 goat anti-mouse IgG (1:1000 dilution; room temperature, 30 min). The cell nuclei were stained with To-Pro-3 (Molecular Probes; 1:1000 dilution; room temperature, 30 min). After each step, the samples were washed three times with PBS. Finally, all the cell preparations were immersed in an antifade reagent (Prolong Gold; Molecular Probes) to prevent photobleaching.
Microscopy. […] The cell preparations were also examined under light microscopy (Eclipse TE 3000; Nikon, Japan), and the images were recorded under phase contrast and epifluorescence (i.e., B-2A and G-2A filters, respectively).

Series [3] in a line: Insertion into lipid monolayer (Langmuir trough, surface pressure). The series is classed as physicochemical. To be noted: for insertion kinetics into the lipid monolayer (surface pressure increase): 20 µM, initial pressure ~11 mN/m; for critical pressure of insertion: extrapolation to zero pressure variation (ΔΠ = 0), 20 µM CCP. How it is done:
as §1
To create lipid monolayers, dioleylposphatidylcholine and cholesterol (70:30) were dissolved together in chloroform/methanol (2:1, v/v) and gently spread over the sub-phase. The desired initial surface pressure was obtained by changing the amounts of the lipid mixture applied to the air–water interface. After solvent evaporation (10 min), each CCP was separately injected through a hole that was connected to the sub-phase, at a final concentration in the Langmuir trough of 20 µM. The changes in surface pressure versus time were recorded until a stable signal was obtained. […] The increase in the surface pressure (∆Π) was plotted versus the initial pressure (Π0), and the critical pressures were determined using linear regression with Prism 5 software (GraphPad, Inc., La Jolla, CA, USA).

Series [4] concerns U87-MG cells. The series is described as follows: MTT metabolic activity / cell viability. Type of series: cell-based, human. As for the experimental part:
Normal human astrocytes (NHAs; Lonza, Walkersville, MD, USA) were grown and maintained in monolayer cultures in Dulbecco’s modified Eagle’s medium (DMEM; Sigma) supplemented with 10% fetal bovine serum (Euroclone, Pero, MI, Italy), 1% penicillin/streptomycin (Euroclone), 2 mM L-glutamine (Euroclone), and 20 mM Hepes (Invitrogen, Carlsbad, CA, USA). The U87-MG human glioblastoma cells (U87-MG cells; American Type Culture Collection, Manassas, VA, USA) were grown and maintained in monolayer cultures in DMEM supplemented with 10% fetal bovine serum, 1% penicillin/streptomycin, 4 mM L-glutamine, and 1% non-essential amino acids (Sigma).
Cell viability was determined using the 3-(4,5-dimethylthiazolyl-2)-2,5-diphenyltetrazolium bromide (MTT) assay, as according to Mosmann. This assay measures the conversion of MTT to its insoluble formazan by the dehydrogenase enzymes of the intact mitochondria of living cells. […]; Nunclon; Nunc, Naperville, IL, USA) and incubated for 16 h at 37 °C for attachment. […] The amount of formazan, which is proportional to the metabolic activity of cells, was quantified spectrophotometrically at 570 nm (reference filter wavelength, 690 nm) using a microplate reader (Synergy MX; BioTek, Winooski, VT, USA). The metabolic activity of the cells was determined by comparing the optical densities of the CCP-treated cells with those of the negative control. […]

Series [5] relates to U87-MG cells. The series is described as follows: Cell morphology, light microscopy (phase contrast). Type of series: cell-based, human.

On to `CC[C@H](C)[C@@H]1NC(=O)[C@H](Cc2ccc(OC)cc2)N(C)C(=O)[C@H]([C@@H](C)O)N2C(=O)[C@H](CC[C@H]2O)NC(=O)[C@H](CC(C)C)NC(=O)[C@@H](NC(=O)[C@H](CCC(N)=O)NC(=O)[C@H](CCc2ccc(O)cc2)NC(=O)[C@@H](O)CO)[C@@H](C)OC1=O`, for which the “concentration at which saturation of the air–water interface was observed” value in series [1] was found to be 25 µM. For the same molecule, the “microfilament and microtubule organization” value in series [2] is given as “strong cytolytic effects on the NHAs, with the collapse of the microfilaments in the center of the cell”. For the same molecule, in series [3], the “insertion kinetics into the lipid monolayer (surface pressure increase)” value is “interacted rapidly with the monolayer” and the “critical pressure of insertion” value was 34.2 mN/m.

Consider `CC(C)[C@@H]1NC(=O)[C@H](NC(=O)N[C@@H](CCCNC(=N)N)C(=O)O)CCCCNC(=O)[C@H](Cc2ccccc2)NC(=O)[C@H](C)N(C)C(=O)[C@H](CCc2ccc(O)cc2)NC1=O` [anabaenopeptin B] ({Arg-CO}-[dK]V[hTyr][NMeA]F; lactam 1-C), for which, in series [3], the “insertion kinetics into the lipid monolayer (surface pressure increase)” value was “interacted rapidly with the monolayer” and the “critical pressure of insertion” value is recorded as 27.1 mN/m.

As to `C=C1C(=O)N[C@H](C)C(=O)N[C@@H](CC(C)C)C(=O)N[C@@H](C(=O)O)[C@H](C)C(=O)N[C@@H](CCCNC(=N)N)C(=O)N[C@@H](/C=C/C(C)=C/[C@H](C)[C@H](Cc2ccccc2)OC)[C@H](C)C(=O)N[C@@H](C(=O)O)CCC(=O)N1C` [MC-LR, Microcystin-LR, reference compound] (R[Adda][d(γGlu)][NMeDha][dA]L[dAsp(3S-Me)]-OH; lactam N-7), in series [4], the “mean decrease in viability” value turned out to be 15% and the “viability vs control” value is reported as “not significantly changed”. Also, the “morphological changes under light microscopy” value in series [5] was “loss of astrocytic domain organization, but also in a reduction in cell numbers”.
